For one data set, the system named is MM.1S cells. As to the kind of experiment: AKT and ERK phosphorylation, immunoblotting. To be noted: MM.1S cells with low expression of P110δ; 6 hours. The class given is cell-based, human. The text has this: Whole-cell lysates were subjected to sodium dodecyl sulfate-polyacrylamide gel electrophoresis (SDS-PAGE) separation, transferred to Pure Nitrocellulose membranes (Bio-Rad Laboratories, Hercules, Calif.), and immunoblotted with anti-AKT, phospho(p)-AKT (Ser473, Thr 308), ERK1/2 , P-ERK1/2, P-PDK1, STAT, P-STAT, P-FKRHL, P-70S6K, LC3, and PI3K/p110 α Abs (Cell Signaling Danvers, Mass.); anti-p110β, PI3K/p110δ, Glyceraldehyde 3-phosphate dehydrogenase (GAPDH), α-tubulin, and actin Abs (Santa Cruz Biotechnology, Calif.); and anti-p110 γ Ab (Alexis, San Diego, Calif.): and anti-LC3 Ab (Abgent, San Diego, Calif.).
Actin Ab was used as a loading control. […] Whole cell lysates were subjected to immunoblotting using AKT, P-AKT (Ser473 and Thr308), ERK1/2, P-ERK1/2, P-PDK1, and P-FKRHL antibodies. α-tubulin is used as a loading control.

In data set [1] the test system is CLL cells on StromaNKTert. As to the kind of experiment: Calcein-based adhesion assay of CLL cells on stroma. Type of data set: cell-based, human. The protocol: Calcein-based adhesion assay: a confluent monolayer of CD154+ L or StromaNKTert cells was generated by plating 1×10^4 cells/well in 96-well plates for 24 hours. Single cell suspensions of CLL cells at 0.5×10^6 cells/ml were then labeled with 1 μg/mL Calcein-AM (Invitrogen) for 1 hour. Cells were then spun down and treated with compound or vehicle for 1 to 24 hours. Non-adherent cells were washed off by aspiration. CLL cell adhesion was quantified by fluorimetry (Ex/Em=485/520 nm), and visualized directly using the Nikon TE2000 inverted live-cell imaging system.

The nature of data set [2]: Blood glucose and insulin levels of a subject. Type of data set: in vivo, human.
The next data set concerns CLL cells. As to the kind of experiment: BH3 profiling, mitochondrial depolarization (JC-1). Type of data set: cell-based, human. The protocol:
BH3 profiling: CLL patient peripheral blood, bone marrow, and lymph node samples were analyzed by either the plate-based fluorimetry or FACS method. Briefly, PBMCs from CLL patients were made into single cell suspensions and gently permeabilized using digitonin (0.002%). For the fluorimtery-based method, 100 μM JC-1 (Invitrogen) was added at this time and cells were then loaded onto a 384-well plate, with individual wells containing individual BH3-only peptides. The JC1-BH3 assays were then conducted in triplicate on a Tecan Safire 2 with Ex 545 +/−[…] and Em 590 +/−20 nm with a three-hour time course. For the FACS-based method, single cell suspensions from CLL patient PBMCs were stained using human Fc Block (BD Pharmingen) followed by anti-CD19-V450 (BD Pharmingen) and anti-CXCR4-APC (BD Pharmingen). […] JC-1 was measured from the 488-nm laser using a 530/30-nm filter (FITC) and a 585/42-nm filter (PE), and the degree of mitochondrial depolarization was calculated using the surrogate of the change in the median of PE signal. The mitochondrial depolarization reported in response to each BH3 peptide is normalized relative to the median percentage change in PE fluorescence of the JC-1 dye with a negative control, dimethyl sulfoxide (DMSO) (0%) and a positive control, the mitochondrial uncoupling agent carbonyl cyanide 4-(trifluoromethoxy)- phenylhydrazone (FCCP) (100%).

Data set [3] deals with phospho-AKT (ser473) in INA-6 cells. As to the kind of experiment: Bortezomib-induced AKT phosphorylation, western blotting. The class given is cell-based, human. Conditions: compound I 5 μM, bortezomib 5 nM; 6 h. The protocol:
Phosphorylation of AKT was determined by western blotting of cell lysates using phospho-AKT (ser473) antibody, FIG. 37B. Actin served as a loading control.

The test system of data set [4] is CLL cells with or without StromaNKTert. As to the kind of experiment: CLL cell viability/apoptosis in stromal co-culture, Annexin V/PI FACS. Type of data set: cell-based, human. Conditions: 24 hours. The protocol:
CLL cell and stromal cell co-cultures: CLL cells were cultured under standardized conditions on stromal cell lines or primary NLC. Briefly, stromal cells were seeded one day prior to each experiment onto 24-well plates (Corning Life Sciences) at a concentration of 3×10^5 cells/mL/well and incubated at 37° C. in 5% CO2. Stromal cell confluence was confirmed by phase contrast microscopy, and CLL cells were then added onto the stromal cell layer at a concentration of 3×10^6 cells/mL. Cultures were then treated with compounds for the specified time periods. CLL cells were removed for analysis by gentle pipetting with media, and were then washed in PBS prior to analysis. A 24-hour co-culture time point was used unless otherwise indicated.
Cell viability testing and reagents: CLL cell viability was determined by analysis of Annexin V-FITC (BD Biosciences, San Diego, Calif.) and Propidium Iodine (PI) (Sigma) by FACS.
To determine whether PI3K inhibition increased the sensitivity of stroma-exposed CLL cells by increasing priming, PB-derived CLL cells cultured with or without StromaNKTert cells for 24 hours and were examined using Annexin-PI and BH3 profiling. […] Stromal co-culture of four CLL patient samples led to protection from apoptosis in untreated cells.

The test system of the next data set is patient MM cells. As to the kind of experiment: Viability of patient MM cells, MTT. The class given is cell-based, human. Conditions: 48 h.
Data set [5] concerns Akt (Ser473) phosphorylation. As to the kind of experiment: Akt phosphorylation in ALL cell lines. The class given is cell-based.
Data set [6] concerns cleavage of caspase 3 and PARP. As to the kind of experiment: Caspase 3 and PARP cleavage, MSD multi-spot plates. Type of data set: cell-based. Conditions: 5 or 10 μM; 24 hrs. The protocol:
Thereafter, cells were lysed and sized-fractionated and immunoblotted with antibody directed against FLIP, FIG. 29. Additionally, whole cell lysates were added to MDS (Meso Scale Diagnostics) multi-spot 96-well 4 spot plates coated with Total caspase-3, cleaved caspase-3, cleaved PARP, and BSA. Proteins were detected with antibodies labeled with SULFO-TAG reagent and quantified.

In a further data set the test system is primary MCL cells. As to the kind of experiment: Constitutive PI3K signaling in primary MCL cells. The class given is cell-based, human. To be noted: two patients; dose dependent; 0.1 μM or 1 μM.

The values that follow come from patent publication US20190083498A1, “THERAPIES FOR HEMATOLOGIC MALIGNANCIES” (GILEAD CALISTOGA LLC, priority 2008, published 2019).

From the text for patient MM cells: Patient MM and BM cells were obtained from BM samples after informed consent was obtained per the Declaration of Helsinki and approval by the Institutional Review Board of the Dana-Farber Cancer Institute (Boston, Mass.). BM mononuclear cells were separated using Ficoll-Paque™ density sedimentation, and plasma cells were purified (>95% CD138+) by positive selection with anti-CD138 magnetic activated cell separation micro beads (Miltenyi Biotec, Auburn, Calif.). Tumor cells were also purified from the BM of MM patients using the RosetteSep negative selection system (StemCell Technologies, Vancouver, BC, Canada).
Data represent mean ±SD viability, assessed by MTT assay of triplicate cultures, expressed as percentage of untreated controls.

Turning to `CC[C@H](Nc1ncnc2[nH]cnc12)c1nc2cccc(F)c2c(=O)n1-c1ccccc1` [Compound I, 5-fluoro-3-phenyl-2-[1-(9H-purin-6-ylamino)-propyl]-3H-quinazolin-4-one], the “phosphorylation of AKT or ERK” value in the data set with MM.1S cells is “did not affect”. Moreover, the “CLL cell adherence to stroma after one hour” value in data set [1] is “reduced adherence”. Moreover, the “CLL cell adherence to stroma at 24 hours” value in [1] (10 μM) is “less adherent”. Further, in data set [2] (after 7 days of treatment), the insulin levels entry is “remained within the normal range”. In addition, the blood glucose concentration entry in data set [2] (after 10 days, highest dosage (50-200 mg BID)) was “remained steady”. In the data set with CLL cells (24 hours, p=0.075), the “mitochondrial priming of stroma-exposed CLL cells” value was “increased mitochondrial priming”. Moreover, in the data set with CLL cells (p=0.046 and p=0.047), the “mitochondrial depolarization induced by BAD BH3 peptide and ABT-737 in treated CLL cells” value is reported as “significantly more mitochondrial depolarization”. In addition, the “induction of phospho-Akt by bortezomib treatment” value in data set [3] was “inhibited”. In addition, the “CLL cell viability in stromal co-culture, single agent” value in [4] (10 μM alone, two patients) is on record as “profound stroma-mediated resistance”. Besides, in data set [4] (four CLL patient samples), the “apoptosis versus control in the absence of stroma” value is “induce more apoptosis than the control” and the “apoptosis versus control in the presence of stroma” value is “induce significantly more apoptosis than the control”. Besides, the “cytotoxicity against patient MM cells” value in the data set with patient MM cells is recorded as “induced cytotoxicity”. Further, in data set [5], the “Akt phosphorylation in ALL cell lines” value is “reduction in Akt phosphorylation”. The “cleavage of caspase 3 and PARP” value in [6] is given as “dose dependent response”. Also, the “constitutive PI3K signaling in primary MCL cells” value with primary MCL cells is “block constitutive PI3K signaling”.
